Experimental data reported in patent US10696693B2, “Fused imidazole derivatives as TGF-beta inhibitors” (Rigel Pharmaceuticals, Inc., priority 2014, dated 2020).
Read-outs that look alike come from different tables or passages of the source.

Key:
TGF-β = assay: AlphaScreen SureFire p-SMAD3 (Ser423/425) assay, TGF-β-stimulated cells; type: cell-based; details: Mus musculus
Source text: (§1) The p-SMAD-3 (Ser423/425) SureFire® assay has been designed to measure the phosphorylation of endogenous cellular p-SMAD-3 (Ser423/425) in cell lysates and is a system for the screening of both modulators of receptor activation (e.g. agonists and antagonists) as well as agents acting intracellularly, such as small molecule inhibitors of upstream events. The assay will measure p-SMAD-3 (Ser423/425) activation by either cloned or endogenous receptors, and can be applied to primary cells.
(§2) 96-well Assay Protocol for 293FT and RMS13 adherent cells can be carried out manually or in high throughput with liquid handling robots.
(§3) The cells (80 μL of cells for 96 well plates) were plated in collagen coated tissue culture plates in RPMI or FreeStyle medium (Invitrogen) and incubated overnight. For manual analysis, 6 plates for GDF8, 6 plates for TGFβ, and optionally 6 plates for Alk5ca(ALK5 constitutively active) were used.
(§4) The compound dilution plates were prepared as follows: 12 μL of DMSO was transferred into first column of 96-well plate, and 16 μL of DMSO was transferred into columns 2-12 of the 96-well plate. 12 μL of compound solution was transferred into first column of the DMSO-containing 96-well plate. Three-fold dilution was performed up to column 10 of the DMSO-containing 96-well plate.
(§5) The plate containing cells were treated with compounds for about 10 minutes, and then ligand was added. GDF8 or TGFb was added to plates to stimulate. 293FL cells were stimulatedfor 90 minutes at 37° C.; and RMS13 cells were stimulated for 60 minutes at 37° C. The medium was then removed from the cells, and 1× Lysis Buffer (about 25 μL) was added and the plate was gently agitated on plate shaker for 5-10 minutes.
(§6) The lysate (5 μL) was then placed into 384-well shallow plates avoiding the generation of bubbles. To this, the Reaction Buffer+Activation Buffer+AlphaScreen® Acceptor beadsmixture (5 μL) was added. The plate was sealed with adhesive cover and shielded from light (e.g., with metal foil), and agitated gently on plate shaker for 2 hours at room temperature.
(§7) Dilution buffer+AlphaScreen® Donor beads (2 μL) was then added, and the plate was intubated on the plate shaker for an additional 1½ hours. After completion, the plate was read on Synergy-4 or Enspire plate reader, using AlphaScreen® pSMAD3® settings.
(§8) Representative results for inhibition of GDF8 (data=GDF pSMAD (MPC11) (μM)) and TGF-β (data=TGF-β pSMAD (MPC-11) (μM)) signaling are shown in Table 1(A=<0.05 μM, B=0.05−<0.1 μM, C=0.1−<1.0 μM, D=>1.0 μM): […]

GDF8 = assay: AlphaScreen SureFire p-SMAD3 (Ser423/425) assay, GDF8-stimulated cells; type: cell-based; details: Mus musculus
Source text: as §1, §2, §3, §4, §5, §6, §7, §8

[1] = p-SMAD3 (Ser423/425) AlphaScreen in cell lysate, MPC-11, TGF-β stimulation, read-out: TGF-β: inhibition of TGF-β signaling, TGF-β pSMAD (MPC-11)
[2] = MPC-11, p-SMAD3 (Ser423/425) AlphaScreen in cell lysate, MPC11, GDF8 stimulation, read-out: GDF8: inhibition of GDF8 signaling, GDF pSMAD (MPC11)
[3] = MPC-11, read-out: TGF-β: inhibition of TGF-β signaling, TGF-β pSMAD (MPC-11), p-SMAD3 (Ser423/425) AlphaScreen in cell lysate, TGF-β stimulation
[4] = MPC-11, read-out: GDF8: inhibition of GDF8 signaling, GDF pSMAD (MPC11), p-SMAD3 (Ser423/425) AlphaScreen in cell lysate, GDF8 stimulation

Cc1cc(-c2nc3n(c2-c2ccc4ncccc4c2)CCC3)cc(C)c1Cl [Compound 246, 6-(2-(4-chloro-3,5-dimethylphenyl)-6,7-dihydro-5H-pyrrolo[1,2-a]imidazol-3-yl)quinoline]
IC50 (TGF-β; [1]): > 1000 nM | IC50 (GDF8; [2]): > 1000 nM

Cc1cc(F)ccc1-c1nc2n(c1-c1ccc3ncsc3c1)CCC2 [Compound 293, 6-(2-(4-fluoro-2-methylphenyl)-6,7-dihydro-5H-pyrrolo[1,2-a]imidazol-3-yl)benzo[d]thiazole]
IC50 (TGF-β; [1]): 100 to 1000 nM | IC50 (GDF8; [2]): 100 to 1000 nM

Fc1cccc(-c2nc3n(c2-c2ccc4nccn4c2)CCC3)c1 [Compound 7, 6-(2-(3-fluorophenyl)-6,7-dihydro-5H-pyrrolo[1,2-c]imidazol-3-yl)imidazo[1,2-c]pyridine]
IC50 (TGF-β; [1]): > 1000 nM | IC50 (GDF8; [2]): 100 to 1000 nM

Cc1ccc(F)cc1-c1nc2n(c1-c1ccc3nccnc3c1)CCC2 [Compound 302, 6-(2-(5-fluoro-2-methylphenyl)-6,7-dihydro-5H-pyrrolo[1,2-a]imidazol-3-yl)quinoxaline]
IC50 (TGF-β; [3]): > 1000 nM | IC50 (GDF8; [4]): > 1000 nM

Fc1ccc(-c2nc3occn3c2-c2ccc3ncsc3c2)c(F)c1F [Compound 161, 5-(benzo[d]thiazol-6-yl)-6-(2,3,4-trifluorophenyl)imidazo[2,1-b]oxazole]
IC50 (TGF-β; [1]): 100 to 1000 nM | IC50 (GDF8; [2]): 50 to 100 nM

Fc1ccc(-c2nc3n(c2-c2ccc4nccn4c2)CCC3)cc1F [Compound 10]
IC50 (TGF-β; [1]): > 1000 nM | IC50 (GDF8; [2]): 100 to 1000 nM

CCOC(=O)C1CCC2(CC1)Cc1nc(-c3ccc(F)cc3)c(-c3ccc4ncnn4c3)n1C2 (stereo not drawn) [Compound 77, ethyl 3′-([1,2,4]triazolo[1,5-a]pyridin-6-yl)-2′-(4-fluorophenyl)-5′H,7′H-spiro[cyclohexane-1,6′-pyrrolo[1,2-a]imidazole]-4-carboxylate]
IC50 (TGF-β; [3]): > 1000 nM | IC50 (GDF8; [4]): > 1000 nM

Cc1cc(F)c(-c2nc3n(c2-c2ccc4ncccc4c2)CCC3)cc1F [Compound 287, 6-(2-(2,5-difluoro-4-methylphenyl)-6,7-dihydro-5H-pyrrolo[1,2-a]imidazol-3-yl)quinoline]
IC50 (TGF-β; [3]): > 1000 nM | IC50 (GDF8; [4]): > 1000 nM

Cc1ccc(F)cc1-c1nc2n(c1-c1ccc3ncnn3c1)CCC2 [Compound 58, 6-(2-(5-fluoro-2-methylphenyl)-6,7-dihydro-5H-pyrrolo[1,2-a]imidazol-3-yl)-[1,2,4]triazolo[1,5-a]pyridine]
IC50 (TGF-β; [1]): > 1000 nM | IC50 (GDF8; [2]): > 1000 nM

Fc1cc(-c2nc3n(c2-c2ccc4[nH]ncc4c2)CCC3)c(F)cc1Cl [Compound 239, 5-(2-(4-chloro-2,5-difluorophenyl)-6,7-dihydro-5H-pyrrolo[1,2-a]imidazol-3-yl)-1H-indazole]
IC50 (TGF-β; [1]): > 1000 nM | IC50 (GDF8; [2]): > 1000 nM

Cc1cc(-c2nc3n(c2-c2ccc4[nH]ncc4c2)CCC3)ccc1F [Compound 172, 5-(2-(4-fluoro-3-methylphenyl)-6,7-dihydro-5H-pyrrolo[1,2-a]imidazol-3-yl)-1H-indazole]
IC50 (TGF-β; [3]): 50 to 100 nM | IC50 (GDF8; [4]): < 50 nM

O=C(O)C1Cn2c(nc(-c3cc(F)cc(F)c3F)c2-c2ccc3ncnn3c2)N1 (stereo not drawn) [Compound 118, 5-([1,2,4]triazolo[1,5-a]pyridin-6-yl)-6-(2,3,5-trifluorophenyl)-2,3-dihydro-1H-imidazo[1,2-a]imidazole-2-carboxylic acid]
IC50 (TGF-β; [1]): < 50 nM | IC50 (GDF8; [2]): < 50 nM

Cc1c(F)ccc(-c2nc3n(c2-c2ccc4[nH]ncc4c2)CCC3)c1C [Compound 328, 5-(2-(4-fluoro-2,3-dimethylphenyl)-6,7-dihydro-5H-pyrrolo[1,2-a]imidazol-3-yl)-1H-indazole]
IC50 (TGF-β; [3]): > 1000 nM | IC50 (GDF8; [4]): 100 to 1000 nM

Fc1ccc(-c2nc3occn3c2-c2ccc3[nH]ncc3c2)cc1 [Compound 126, 6-(4-fluorophenyl)-5-(1H-indazol-5-yl)imidazo[2,1-b]oxazole]
IC50 (TGF-β; [1]): 50 to 100 nM | IC50 (GDF8; [2]): < 50 nM

Cc1cc(F)ccc1-c1nc2n(c1-c1ccc3ncccc3c1)CCC2 [Compound 295, 6-(2-(4-fluoro-2-methylphenyl)-6,7-dihydro-5H-pyrrolo[1,2-a]imidazol-3-yl)quinoline]
IC50 (TGF-β; [1]): > 1000 nM | IC50 (GDF8; [2]): > 1000 nM

Cc1cccc(-c2nc3occn3c2-c2ccc3cn[nH]c3c2)c1 [Compound 140, 6-(m-tolyl)-5-(1H-indazol-6-yl)imidazo[2,1-b]oxazole]
IC50 (TGF-β; [1]): < 50 nM | IC50 (GDF8; [2]): < 50 nM

Fc1ccc(-c2nc3occn3c2-c2ccc3cn[nH]c3c2)c(F)c1 [Compound 155, 6-(2,4-difluorophenyl)-5-(1H-indazol-6-yl)imidazo[2,1-b]oxazole]
IC50 (TGF-β; [1]): 100 to 1000 nM | IC50 (GDF8; [2]): 50 to 100 nM

CN(C)CCOc1cnc2ccc(-c3c(-c4cc(F)c(F)cc4F)nc4n3CCN4)cc2n1 [Compound 120, N,N-dimethyl-2-((7-(6-(2,4,5-trifluorophenyl)-2,3-dihydro-1H-imidazo[1,2-a]imidazol-5-yl)quinoxalin-2-yl)oxy)ethan-1-amine]
IC50 (TGF-β; [1]): < 50 nM | IC50 (GDF8; [2]): < 50 nM

N#Cc1cnc2ccc(-c3c(-c4ccc(F)c(Cl)c4)nc4n3CCC4)cn12 [Compound 61, 6-(2-(3-chloro-4-fluorophenyl)-6,7-dihydro-5H-pyrrolo[1,2-a]imidazol-3-yl)imidazo[1,2-a]pyridine-3-carbonitrile]
IC50 (TGF-β; [1]): 100 to 1000 nM | IC50 (GDF8; [2]): 100 to 1000 nM

Fc1ccc(Cl)cc1-c1nc2n(c1-c1ccc3nccnc3c1)CCC2 [Compound 337, 6-(2-(5-chloro-2-fluoropheny)-6,7-dihydro-5H-pyrrolo[1,2-a]imidazol-3-yl)quinoxaline]
IC50 (TGF-β; [1]): < 50 nM | IC50 (GDF8; [2]): < 50 nM

CNCC1CCC2(CC1)Cc1nc(-c3ccc(F)cc3)c(-c3ccc4ncnn4c3)n1C2 (stereo not drawn) [Compound 86, 1-(3′-([1,2,4]triazolo[1,5-a]pyridin-6-yl)-2′-(4-fluorophenyl)-5′H,7′H-spiro[cyclohexane-1,6′-pyrrolo[1,2-a]imidazol]-4-yl)-N-methylmethanamine]
IC50 (TGF-β; [1]): > 1000 nM | IC50 (GDF8; [2]): > 1000 nM

Fc1cc(Cl)c(-c2nc3n(c2-c2ccc4ncsc4c2)CCC3)cc1F [Compound 289, 6-(2-(2-chloro-4,5-difluorophenyl)-6,7-dihydro-5H-pyrrolo[1,2-a]imidazol-3-yl)benzo[d]thiazole]
IC50 (TGF-β; [1]): 100 to 1000 nM | IC50 (GDF8; [2]): < 50 nM

Fc1cccc(-c2nc3n(c2-c2ccc4[nH]ncc4c2)CCC3)c1 [Compound 193, 5-(2-(3-fluorophenyl)-6,7-dihydro-5H-pyrrolo[1,2-a]imidazol-3-yl)-1H-indazole]
IC50 (TGF-β; [3]): > 1000 nM | IC50 (GDF8; [4]): 100 to 1000 nM

Fc1cc(F)c(F)c(-c2nc3n(c2-c2ccc4ncc(-n5ccnc5)nc4c2)CCC3)c1 [Compound 359, 2-(1H-imidazol-1-yl)-7-(2-(2,3,5-trifluorophenyl)-6,7-dihydro-5H-pyrrolo[1,2-a]imidazol-3-yl)quinoxaline]
IC50 (TGF-β; [3]): 100 to 1000 nM | IC50 (GDF8; [4]): 50 to 100 nM

Fc1ccccc1-c1nc2n(c1-c1ccc3ncccc3c1)CCC2 [Compound 210, 6-(2-(2-fluorophenyl)-6,7-dihydro-5H-pyrrolo[1,2-a]imidazol-3-yl)quinoline]
IC50 (TGF-β; [1]): > 1000 nM | IC50 (GDF8; [2]): 100 to 1000 nM

Cc1c(F)ccc(-c2nc3n(c2-c2ccc4ncsc4c2)CCC3)c1F [Compound 281, 6-(2-(2,4-difluoro-3-methylphenyl)-6,7-dihydro-5H-pyrrolo[1,2-a]imidazol-3-yl)benzo[d]thiazol]
IC50 (TGF-β; [1]): 100 to 1000 nM | IC50 (GDF8; [2]): 50 to 100 nM

Fc1cccc(F)c1-c1nc2n(c1-c1ccc3[nH]ncc3c1)CCC2 [Compound 212, 5-(2-(2,6-difluorophenyl)-6,7-dihydro-5H-pyrrolo[1,2-a]imidazol-3-yl)-1H-indazole]
IC50 (TGF-β; [1]): > 1000 nM | IC50 (GDF8; [2]): > 1000 nM
